By IC50 is commonly meant the concentration at which inhibition is half-maximal. A word on the EC50: it is the concentration that produces a half-maximal response. A low value points to a more potent agent.

The source of these data is patent US11447486B2, “2-amino-benzimidazole derivatives and their use as 5-lipoxygenase and/or prostaglandin E synthase inhibitors” (INSTITUT PASTEUR KOREA, priority 2014, dated 2022).

One assay concerns the target T1, human 5-LOX (Homo sapiens, UniProt P09917).
T1 construct: purchased Cayman 60402; host or cells: insect cells (lysate)
T1 sequence (P09917 1-674): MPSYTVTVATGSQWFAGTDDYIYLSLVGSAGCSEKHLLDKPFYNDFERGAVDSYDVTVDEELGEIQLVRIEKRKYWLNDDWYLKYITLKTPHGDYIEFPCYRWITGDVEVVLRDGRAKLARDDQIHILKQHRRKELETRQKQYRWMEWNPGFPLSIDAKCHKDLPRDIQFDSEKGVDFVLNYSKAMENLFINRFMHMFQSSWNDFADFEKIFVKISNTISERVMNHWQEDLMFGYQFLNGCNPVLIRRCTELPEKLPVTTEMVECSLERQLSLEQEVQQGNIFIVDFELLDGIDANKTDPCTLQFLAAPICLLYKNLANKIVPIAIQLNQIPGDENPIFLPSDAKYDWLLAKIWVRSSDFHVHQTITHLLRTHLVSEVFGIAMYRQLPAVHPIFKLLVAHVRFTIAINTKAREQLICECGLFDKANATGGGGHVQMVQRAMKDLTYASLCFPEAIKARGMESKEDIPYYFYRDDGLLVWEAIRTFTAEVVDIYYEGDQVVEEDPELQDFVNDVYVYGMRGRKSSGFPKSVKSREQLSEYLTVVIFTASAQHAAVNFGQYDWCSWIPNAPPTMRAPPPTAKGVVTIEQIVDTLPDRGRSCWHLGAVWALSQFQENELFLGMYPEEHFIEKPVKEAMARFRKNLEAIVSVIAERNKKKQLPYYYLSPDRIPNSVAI
Description: 5-LOX enzyme activity, fluorescence method (5-HPETE, H2DCFDA). Type of assay: biochemical. As to conditions: read-out: 5-LO (IC50). The gist of the method: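 Fluorescence-based read-out, run entirely at room temperature. Enzyme mixture was exposed to a dose range of compound from 0.5 nM to 10 uM for 5 min before ATP and arachidonic acid were added to final levels of 100 uM and 3 uM.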

A further assay has as its system Rat whole blood (RWB). Description: LTB4 secretion assay in RWB (rat whole blood). The format is cell-based. As to conditions: Rattus norvegicus. On the procedure: Rat blood was drawn from caudal vena cava from male Sprague Dawley rat (6-9 weeks old) in vacuette coated with sodium heparin (Greiner bio-one, Cat #455051). The blood was pooled and diluted with RPMI (WelGENE, Cat #LM 011-05) to 1:1. The diluted blood was aliquoted into 96 well plate (200 ul per well) and compounds were added in dose response to a desired concentration ranging from 2.5 nM to 50 uM. After 15 min of pre-incubation at 37° C., calcium ionophore (A23187) was added to the final concentration of 10 uM. After 10 min of further incubation at 37° C., the LTB4 production was stopped by diluting the reaction mixture with ice cold PBS (1:4 dilutions). Cells were removed by centrifugation at 1000×g, 4° C. for 10 min, and the supernatant was transferred and then the quantification of LTB4 was done with Leukotriene B4 EIA kit (Cayman, Cat #520111) as instructed.

Assay [1] has as its system Rat basophilic leukemia (RBL) cells. The experiment in a line: LTB4 secretion assay in RBL (rat basophilic leukemia cells). Type of assay: cell-based. As to conditions: Rattus norvegicus, RBL. An outline of the steps: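 LTB4 released into supernatant was measured by EIA after 10 min at 37 °C with arachidonic acid (2.5 uM final) and calcium ionophore A23187 (5 uM final). Before stimulation, cells plated 2×10^4/well overnight received compound doses (5 nM to 100 uM) for 15 min in 0.5% FBS medium.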

Consider `Nc1ccc2[nH]c(NCc3ccc(N4CCC(Oc5ccc(Cl)cc5)C4)cc3)nc2c1` (centres unmarked) [Compound 3], for which, at human 5-LOX, the half-maximal inhibitory concentration (IC50) was less than 1 µM. In addition, in the assay with Rat whole blood (RWB), the EC50 is greater than 20 µM.
Take `Nc1ccc2[nH]c(NCc3ccc(OCc4ccc(Cl)cc4)cc3)nc2c1` [Compound 4]: the IC50 on human 5-LOX is less than 1 µM. In the assay with Rat whole blood (RWB), this compound had a half-maximal effective concentration (EC50) greater than 20 µM.
In the same order, the values of `Nc1ccc2[nH]c(NCc3ccc(N4CCC(COc5ccc(Cl)cc5)CC4)cc3)nc2c1` [Compound 5] are less than 1 µM and 10 to 20 µM.
In the same order, the values of `Nc1ccc2[nH]c(NCc3ccc(N4CCC(OCc5ccc(Cl)cc5)CC4)cc3)nc2c1` [Compound 6] are less than 1 µM and greater than 20 µM.
In the case of `Nc1ccc2[nH]c(NCc3ccc(N4CCOCC4)cc3)nc2c1` [Compound 7], the IC50 at human 5-LOX is less than 1 µM. Also, the EC50 in the assay with Rat whole blood (RWB) was greater than 20 µM.
For `Cc1cc(Nc2ccc3[nH]c(NCc4ccc(Oc5ccc(Cl)cc5)cc4)nc3c2)n[nH]1` [Compound 8], in that order: less than 1 µM and greater than 20 µM.
Take `Nc1ccc2[nH]c(NCc3ccc(Oc4ccc(Cl)cc4)cc3Cl)nc2c1` [Compound 9]: on human 5-LOX, the IC50 is less than 1 µM. Moreover, in the assay on Rat whole blood (RWB), the EC50 is 10 to 20 µM.
As to `Nc1ccc2[nH]c(NCc3ccc(Oc4ccc(Cl)cc4)cc3F)nc2c1` [Compound 10], the IC50 on human 5-LOX was less than 1 µM. Further, the EC50 with Rat whole blood (RWB) was in the range of 10 to 20 µM.
In the same order, the values of `Nc1ccc2[nH]c(NCCc3ccc(Oc4ccc(Cl)cc4)cc3)nc2c1` [Compound 11] are less than 1 µM and less than 10 µM.
Regarding `O=C(NC1CC1)c1c[nH]nc1Nc1ccc2[nH]c(NCc3ccc(Oc4ccc(Cl)cc4)cc3)nc2c1` [Compound 12], the IC50 on human 5-LOX was less than 1 µM. Also, the EC50 in the assay with Rat whole blood (RWB) is less than 10 µM.
As to `CCOC(=O)c1c[nH]nc1Nc1ccc2[nH]c(NCc3ccc(Oc4ccc(Cl)cc4)cc3)nc2c1` [Compound 13], on human 5-LOX, the IC50 fell in the range of 1 to 10 µM. Moreover, the EC50 in the assay with Rat whole blood (RWB) was greater than 20 µM.
As to `Nc1ccc2nc(N)n(CCc3ccc(Oc4ccc(Cl)cc4)cc3)c2c1` [Compound 15], the IC50 on human 5-LOX was less than 1 µM. Further, the EC50 in the assay on Rat whole blood (RWB) is greater than 20 µM.
In the same order, the values of `Clc1ccc(Oc2ccc(CNc3nc4cc(Nc5cccnc5)ccc4[nH]3)cc2)cc1` [Compound 16] are less than 1 µM and greater than 20 µM.
As to `Nc1nc2ccc(Nc3n[nH]cc3C(=O)NC3CC3)cc2n1CCOc1ccc(OC(F)(F)F)cc1` [Compound 17], the IC50 on human 5-LOX fell in the range of 1 to 10 µM. For the same compound, the values for the EC50 (in assay [1]; in the assay with Rat whole blood (RWB)) were less than 10 µM and greater than 20 µM, respectively.
As to `CC(C)(Nc1nc2cc(N)ccc2[nH]1)c1ccc(Oc2ccc(Cl)cc2)cc1` [Compound 20], the 50% inhibitory concentration (IC50) on human 5-LOX was less than 1 µM. Moreover, the half-maximal effective concentration (EC50) with Rat whole blood (RWB) is greater than 20 µM.
In the same order, the values of `CCOC(=O)c1c[nH]nc1Nc1ccc2nc(N)n(CCOc3ccc(OC(F)(F)F)cc3)c2c1` [Compound 22] are greater than 10 µM and greater than 20 µM.
For the compound `Fc1ccc(Nc2ccc3[nH]c(NCc4ccc(Oc5ccc(Cl)cc5)cc4)nc3c2)cn1` [Compound 23], the IC50 on human 5-LOX was in the range of 1 to 10 µM. Moreover, the EC50 in the assay on Rat whole blood (RWB) lay within 10 to 20 µM.
`Clc1ccc(Oc2ccc(CNc3nc4cc(Nc5cn[nH]c5)ccc4[nH]3)cc2)cc1` [Compound 24]: the IC50 at human 5-LOX is less than 1 µM. Besides, the EC50 (in assay [1]; in the assay with Rat whole blood (RWB)) was less than 10 µM throughout.
For `Nc1ccc2[nH]c(NCc3ccc(Cl)cc3F)nc2c1` [Compound 30], at human 5-LOX, the half-inhibitory concentration (IC50) was less than 1 µM. The half-maximal effective concentration (EC50) (in assay [1]; in the assay on Rat whole blood (RWB)) was less than 10 µM each time.
In the case of `Nc1ccc2[nH]c(NCCc3ccc(F)cc3)nc2c1` [Compound 32], the IC50 at human 5-LOX was less than 1 µM. The EC50 (in assay [1]; in the assay with Rat whole blood (RWB)) was less than 10 µM each time.
Turning to `CN(C)c1nc2cc(N)ccc2n1CCOc1ccc(Cl)cc1` [Compound 38], on human 5-LOX, the IC50 is less than 1 µM. Further, the EC50 is less than 10 µM in assay [1] and greater than 20 µM in the assay with Rat whole blood (RWB).
With `Nc1ccc2nc(N3CCCC3)n(CCOc3ccc(OC(F)(F)F)cc3)c2c1` [Compound 51], the IC50 on human 5-LOX is less than 1 µM. For the same compound, the concentration giving a half-maximal response (EC50) in assay [1] was less than 10 µM; in the assay on Rat whole blood (RWB) it was 10 to 20 µM.
On to `Cn1c(NCCOc2ccc(OC(F)(F)F)cc2)nc2ccc(N)cc21` [Compound 52], for which the IC50 at human 5-LOX is less than 1 µM. The EC50 (in assay [1]; in the assay on Rat whole blood (RWB)) was less than 10 µM in each case.
For `Nc1ccc2c(c1)nc(N1CCCC1)n2CCOc1ccc(OC(F)(F)F)cc1` [Compound 55], at human 5-LOX, the IC50 is 1 to 10 µM. For the same compound, the EC50 is less than 10 µM in assay [1] and greater than 20 µM in the assay with Rat whole blood (RWB).
With `Cn1c(NCCOc2ccc(OC(F)(F)F)cc2Cl)nc2ccc(N)cc21` [Compound 56], the concentration for half-maximal inhibition (IC50) at human 5-LOX was less than 1 µM. In addition, the EC50 in assay [1] was less than 10 µM; in the assay with Rat whole blood (RWB) it was 10 to 20 µM.
As for `Cn1c(NCCOc2ccc(OC(F)(F)F)cc2Cl)nc2cc(N)ccc21` [Compound 57], at human 5-LOX, the IC50 was less than 1 µM. The EC50 in assay [1] is less than 10 µM; in the assay on Rat whole blood (RWB) it was greater than 20 µM.
Take `Cn1c(NCCOc2ccc(OC(F)(F)F)c(Cl)c2)nc2ccc(N)cc21` [Compound 58]: the half-inhibitory concentration (IC50) on human 5-LOX was less than 1 µM. Also, the 50% effective concentration (EC50) is less than 10 µM in assay [1] and greater than 20 µM in the assay on Rat whole blood (RWB).
For `Cn1c(NCCOc2ccc(OC(F)(F)F)c(Cl)c2)nc2cc(N)ccc21` [Compound 59], in that order: less than 1 µM, less than 10 µM and greater than 20 µM.
In the case of `Nc1ccc2nc(NCCOc3ccc(OC(F)(F)F)cc3)[nH]c2c1` [Compound 62], on human 5-LOX, the IC50 was less than 1 µM. Besides, the EC50 (in assay [1]; in the assay on Rat whole blood (RWB)) was less than 10 µM in each case.
On to `CC(C)(C)Nc1nc2ccc(N)cc2n1CCOc1ccc(OC(F)(F)F)cc1` [Compound 65], for which the IC50 on human 5-LOX is less than 1 µM. The EC50 (in assay [1]; in the assay with Rat whole blood (RWB)) was less than 10 µM in each case.
As for `CC(C)(C)Nc1nc2cc(N)ccc2n1CCOc1ccc(OC(F)(F)F)cc1` [Compound 66], on human 5-LOX, the IC50 was less than 1 µM. The EC50 was less than 10 µM in assay [1] and greater than 20 µM in the assay on Rat whole blood (RWB).
Take `CC(C)(C)Nc1nc2ccc(N)cc2n1CC(=O)Nc1ccc(OC(F)(F)F)cc1` [Compound 67]: at human 5-LOX, the IC50 was less than 1 µM. Moreover, the results for the EC50 (in assay [1]; in the assay with Rat whole blood (RWB)) were less than 10 µM and greater than 20 µM, respectively.
As to `Nc1ccc2nc(N3CCC3)n(CCOc3ccc(OC(F)(F)F)cc3)c2c1` [Compound 68], on human 5-LOX, the IC50 was less than 1 µM. Moreover, the EC50 was less than 10 µM in assay [1] and greater than 20 µM with Rat whole blood (RWB).
Turning to `Nc1ccc2c(c1)nc(N1CCC1)n2CCOc1ccc(OC(F)(F)F)cc1` [Compound 70], the half-inhibitory concentration (IC50) at human 5-LOX is less than 1 µM. The EC50 in assay [1] was less than 10 µM; in the assay on Rat whole blood (RWB), greater than 20 µM.
`Nc1ccc2[nH]c(NCCc3ccc(Cl)cc3Cl)nc2c1` [Compound 73]: the half-inhibitory concentration (IC50) at human 5-LOX was less than 1 µM. For the same compound, the results for the EC50 (in assay [1]; with Rat whole blood (RWB)) were less than 10 µM and 10 to 20 µM, respectively.
As for `CC(Nc1nc2cc(N)ccc2[nH]1)c1ccc(Cl)cc1Cl` (centres unmarked) [Compound 74], the IC50 on human 5-LOX was less than 1 µM. Further, the results for the EC50 (in assay [1]; in the assay on Rat whole blood (RWB)) were less than 10 µM and 10 to 20 µM, respectively.
Regarding `Nc1nc2cc(NCCOc3ccc(OC(F)(F)F)cc3)ccc2[nH]1` [Compound 75], the IC50 at human 5-LOX was less than 1 µM. For the same compound, the EC50 in assay [1] was 10 to 20 µM; with Rat whole blood (RWB), greater than 20 µM.
As for `Fc1ccc(CNc2nc3ccc(N4CCC(Oc5ccc(OC(F)(F)F)cc5)C4)cc3[nH]2)cc1` (centres unmarked) [Compound 77], the IC50 on human 5-LOX is less than 1 µM. Besides, the EC50 in assay [1] is 10 to 20 µM; with Rat whole blood (RWB), less than 10 µM.
In the same order, the values of `Nc1ccc2[nH]c(NCc3ccc(OC(F)(F)F)cc3)nc2c1` [Compound 79] are less than 1 µM, less than 10 µM and less than 10 µM.
